According to patent publication US5852210A, “Cinnamic acid derivatives” (G. D. Searle & Co., priority 1997, dated 1998):
Where a name gives a salt, the structure may show the parent alone. Read-outs that look alike come from different tables or passages of the source.

Assays:
[1] = biological target: T1, Human fibrinogen receptor (αIIb β3) (Homo sapiens, UniProt P05106+P08514); test: Purified IIb/IIIa receptor assay (solid phase receptor assay); conditions: inhibition of binding of biotinylated human vitronectin (1 nM) to purified receptor; Table I
T1 construct: Human fibrinogen receptor (αIIb β3) was purified from outdated platelets; from tissue; host or cells: human outdated platelets
T1 sequence (P08514 32-887 limits assumed): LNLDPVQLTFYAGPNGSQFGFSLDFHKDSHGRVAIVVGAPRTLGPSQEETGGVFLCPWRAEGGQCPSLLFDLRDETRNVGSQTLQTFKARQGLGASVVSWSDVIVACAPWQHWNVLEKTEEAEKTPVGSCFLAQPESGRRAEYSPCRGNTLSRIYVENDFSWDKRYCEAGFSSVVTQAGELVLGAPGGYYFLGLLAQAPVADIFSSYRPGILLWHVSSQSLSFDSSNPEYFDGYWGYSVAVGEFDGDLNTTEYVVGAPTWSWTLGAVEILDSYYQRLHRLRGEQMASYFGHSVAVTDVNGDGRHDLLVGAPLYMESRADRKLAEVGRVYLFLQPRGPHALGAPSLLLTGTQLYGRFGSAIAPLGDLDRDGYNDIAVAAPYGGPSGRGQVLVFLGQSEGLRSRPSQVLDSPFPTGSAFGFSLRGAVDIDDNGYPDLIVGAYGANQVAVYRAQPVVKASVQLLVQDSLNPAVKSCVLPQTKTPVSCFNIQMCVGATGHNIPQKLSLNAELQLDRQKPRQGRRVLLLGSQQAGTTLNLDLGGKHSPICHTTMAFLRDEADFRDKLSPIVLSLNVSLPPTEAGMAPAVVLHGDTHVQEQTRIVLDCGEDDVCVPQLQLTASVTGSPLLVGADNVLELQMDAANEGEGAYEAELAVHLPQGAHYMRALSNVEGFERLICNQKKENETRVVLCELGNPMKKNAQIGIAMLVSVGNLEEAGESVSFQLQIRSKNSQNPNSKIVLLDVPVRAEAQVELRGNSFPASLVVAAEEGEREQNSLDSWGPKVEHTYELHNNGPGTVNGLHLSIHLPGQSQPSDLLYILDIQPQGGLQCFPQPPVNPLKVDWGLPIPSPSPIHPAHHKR
T1 sequence (P08514 891-1039 limits assumed): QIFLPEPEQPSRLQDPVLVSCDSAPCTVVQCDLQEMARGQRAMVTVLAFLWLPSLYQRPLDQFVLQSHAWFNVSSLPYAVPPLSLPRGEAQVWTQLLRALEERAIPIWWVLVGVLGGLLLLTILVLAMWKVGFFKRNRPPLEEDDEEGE
T1 sequence (P05106 27-788): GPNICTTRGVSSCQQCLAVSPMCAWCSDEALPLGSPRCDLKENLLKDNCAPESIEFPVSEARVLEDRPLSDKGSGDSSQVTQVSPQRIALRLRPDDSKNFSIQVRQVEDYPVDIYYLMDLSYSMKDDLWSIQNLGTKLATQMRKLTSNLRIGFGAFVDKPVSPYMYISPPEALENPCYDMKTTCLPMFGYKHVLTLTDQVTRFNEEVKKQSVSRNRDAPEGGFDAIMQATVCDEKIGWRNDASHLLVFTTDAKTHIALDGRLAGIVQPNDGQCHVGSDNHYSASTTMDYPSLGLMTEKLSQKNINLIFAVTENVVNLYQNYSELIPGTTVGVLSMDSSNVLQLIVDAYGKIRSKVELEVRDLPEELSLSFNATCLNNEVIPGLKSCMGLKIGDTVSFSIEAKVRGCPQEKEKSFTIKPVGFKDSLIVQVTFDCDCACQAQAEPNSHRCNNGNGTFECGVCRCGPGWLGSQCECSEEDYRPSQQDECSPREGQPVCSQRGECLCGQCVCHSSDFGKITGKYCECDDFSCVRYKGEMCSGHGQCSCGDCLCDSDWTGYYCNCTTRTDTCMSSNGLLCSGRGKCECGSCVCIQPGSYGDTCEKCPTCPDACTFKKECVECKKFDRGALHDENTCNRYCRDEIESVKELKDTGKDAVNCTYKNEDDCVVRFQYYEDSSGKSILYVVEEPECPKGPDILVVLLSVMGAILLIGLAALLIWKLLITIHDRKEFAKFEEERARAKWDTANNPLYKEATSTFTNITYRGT
Description: (§1) The activity of the compounds of the present invention was tested in the following assays.
Human fibrinogen receptor (αIIb β3) was purified from outdated platelets. (Pytela, R., Pierschbacher, M. D., Argraves, S., Suzuki, S., and Rouslahti, E. "Arginine-Glycine-Aspartic acid adhesion receptors", Methods in Enzymology 144(1987):475-489.) Human vitronectin was purified from fresh frozen plasma as described in Yatohgo, T., Izumi, M., Kashiwagi, H., and Hayashi, M., "Novel purification of vitronectin from human plasma by heparin affinity chromatography," Cell Structure and Function 13(1988):281-292. Biotinylated human vitronectin was prepared by coupling NHS-biotin from Pierce Chemical Company (Rockford, Ill.) to purified vitronectin as previously described. (Charo, I. F., Nannizzi, L., Phillips, D. R., Hsu, M. A., Scarborough, R. M., "Inhibition of fibrinogen binding to GP IIb/IIIa by a GP IIIa peptide", J. Biol. Chem. 266(3) (1991): 1415-1421.) Assay buffer, OPD substrate tablets, and RIA grade BSA were obtained from Sigma (St. Louis, Mo.). Anti-biotin antibody was obtained from Calbiochem (La Jolla, Calif.). Linbro microtiter plates were obtained from Flow Labs (McLean, Va.). ADP reagent was obtained from Sigma (St. Louis, Mo.).
(§2) Solid Phase Receptor Assays
This assay is essentially the same reported in Niiya, K., Hodson, E., Bader, R., Byers-Ward, V. Koziol, J. A., Plow, E. F. and Ruggeri, Z. M., "Increased surface expression of the membrane glycoprotein IIb/IIIa complex induced by platelet activation: Relationships to the binding of fibrinogen and platelet aggregation", Blood 70 (1987):475-483. The purified human fibrinogen receptor (αIIb β3) was diluted from stock solutions to 1.0 μg/mL in Tris-buffered saline containing 1.0 mM Ca^++, Mg^++, and Mn^++, pH 7.4 (TBS^+++). The diluted receptor was immediately transferred to Linbro microtiter plates at 100 μL/well (100 ng receptor/well). The plates were sealed and incubated overnight at 4° C. to allow the receptor to bind to the wells. All remaining steps were at room temperature. The assay plates were emptied and 200 μL of 1% RIA grade BSA in TBS^+++ (TBS^+++ /BSA) were added to block exposed plastic surfaces. Following a 2 hour incubation, the assay plates were washed with TBS^+++ using a 96 well plate washer. Logarithmic serial dilution of the test compound and controls were made starting at a stock concentration of 2 mM and using 2 nM biotinylated vitronectin in TBS^+++ /BSA as the diluent. This premixing of labeled ligand with test (or control) ligand, and subsequent transfer of 50 μL aliquots to the assay plate was carried out with a CETUS Propette robot; the final concentration of the labeled ligand was 1 nM and the highest concentration of test compound was 1.0×10^-4 M. The competition occurred for two hours after which all wells were washed with a plate washer as before. Affinity purified horseradish peroxidase labeled goat anti-biotin antibody was diluted 1:3000 in TBS^+++ /BSA and 125 μL were added to each well. After 30 minutes, the plates were washed and incubated with […]/H2 O2 substrate in 100 mM/L citrate buffer, pH 5.0. The plate was read with a microtiter plate reader at a wavelength of 450 nm and when the maximum-binding control wells reached an absorbance of about 1.0, the final A450 were recorded for analysis. The data were analyzed using a macro written for use with the EXCEL™ spreadsheet program. The mean, standard deviation, and % CV were determined for duplicate concentrations. The mean A450 values were normalized to the mean of four maximum-binding controls (no competitor added) (B-MAX). The normalized values were subjected to a four parameter curve fit algorithm, [Robard et al., Int.

[2] = biological target: T2, Human vitronectin receptor (αv β3) (Homo sapiens, UniProt P05106+P06756); test: Vitronectin adhesion assay (solid phase receptor assay, αvβ3); format: binding
T2 construct: Human vitronectin receptor (αv β3) was purified from human placenta; from tissue; host or cells: human placenta
T2 sequence (P06756 31-889 limits assumed): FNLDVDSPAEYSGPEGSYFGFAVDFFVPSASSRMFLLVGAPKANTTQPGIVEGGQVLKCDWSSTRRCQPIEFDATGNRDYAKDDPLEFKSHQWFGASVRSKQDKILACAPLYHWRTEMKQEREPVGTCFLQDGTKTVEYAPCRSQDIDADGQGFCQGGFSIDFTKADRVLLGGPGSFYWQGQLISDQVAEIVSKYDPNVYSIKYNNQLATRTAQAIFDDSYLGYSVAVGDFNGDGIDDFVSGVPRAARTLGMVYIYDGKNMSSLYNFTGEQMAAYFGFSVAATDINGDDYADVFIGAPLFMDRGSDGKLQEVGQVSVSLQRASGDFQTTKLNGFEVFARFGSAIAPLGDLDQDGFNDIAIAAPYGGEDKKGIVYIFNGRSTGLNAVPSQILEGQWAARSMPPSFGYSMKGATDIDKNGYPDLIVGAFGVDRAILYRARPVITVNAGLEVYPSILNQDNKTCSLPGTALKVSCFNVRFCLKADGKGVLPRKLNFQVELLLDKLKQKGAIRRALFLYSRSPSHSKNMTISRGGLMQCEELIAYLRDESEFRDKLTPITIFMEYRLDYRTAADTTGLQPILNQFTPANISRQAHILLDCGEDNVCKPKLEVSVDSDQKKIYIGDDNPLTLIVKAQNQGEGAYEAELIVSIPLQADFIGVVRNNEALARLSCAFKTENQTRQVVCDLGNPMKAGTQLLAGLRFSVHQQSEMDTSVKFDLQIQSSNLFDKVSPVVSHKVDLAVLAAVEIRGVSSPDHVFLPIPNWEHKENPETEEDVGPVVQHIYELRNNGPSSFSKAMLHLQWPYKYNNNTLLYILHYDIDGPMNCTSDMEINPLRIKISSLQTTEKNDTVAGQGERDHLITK
T2 sequence (P06756 891-1048 limits assumed): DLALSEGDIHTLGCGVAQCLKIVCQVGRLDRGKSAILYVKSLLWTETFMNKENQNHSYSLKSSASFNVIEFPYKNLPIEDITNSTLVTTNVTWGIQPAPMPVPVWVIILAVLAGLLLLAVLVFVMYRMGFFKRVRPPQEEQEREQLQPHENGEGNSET
T2 sequence (P05106 27-788): as the sequence (P05106 27-788) above
Description: as §1
Human vitronectin receptor (αv β3) was purified from human placenta as previously described [Pytela et al., Methods in Enzymology, 144:475-489 (1987)]. Human vitronectin was purified from fresh frozen plasma as previously described [Yatohgo et al., Cell Structure and Function, 13:281-292 (1988)]. Biotinylated human vitronectin was prepared by coupling NHS-biotin from Pierce Chemical Company (Rockford, Ill.) to purified vitronectin as previously described [Charo et al., J. Biol. Chem., 266(3):1415-1421 (1991)]. Assay buffer, OPD substrate tablets, and RIA grade BSA were obtained from Sigma (St. Louis, Mo.). Anti-biotin antibody was obtained from Calbiochem (La Jolla, Calif.). Linbro microtiter plates were obtained from Flow Labs (McLean, Va.). ADP reagent was obtained from Sigma (St. Louis, Mo.).
as §2
This assay was essentially the same as previously reported [Niiya et al., Blood, 70:475-483 (1987)]. The purified human vitronectin receptor (αv β3) was diluted from stock solutions to […] in Tris-buffered saline containing 1.0 mM Ca^++, Mg^++, and Mn^++, pH 7.4 (TBS^+++). The diluted receptor was immediately transferred to Linbro microtiter plates at 100 μL/well (100 ng receptor/well). The plates were sealed and incubated overnight at 4° C. to allow the receptor to bind to the wells. All remaining steps were at room temperature. The assay plates were emptied and 200 μL, of 1% RIA grade BSA in TBS^+++ (TBS^+++ /BSA) were added to block exposed plastic surfaces. Following a 2 hour incubation, the assay plates were washed with TBS^+++ using a 96 well plate washer. Logarithmic serial dilution of the test compound and controls were made starting at a stock concentration of 2 mM and using 2 nM biotinylated vitronectin in TBS^+++ /BSA as the diluent. This premixing of labeled ligand with test (or control) ligand, and subsequent transfer of 50 μL aliquots to the assay plate was carried out with a CETUS Propette robot; the final concentration of the labeled ligand was 1 nM and the highest concentration of test compound was 1.0×10^-4 M. The competition occurred for two hours after which all wells were washed with a plate washer as before. Affinity purified horseradish peroxidase labeled goat anti-biotin antibody was diluted 1:3000 in TBS^+++ /BSA and 125 μL were added to each well. After 30 minutes, the plates were washed and incubated with OPD/H2 O2 substrate in 100 mM/L Citrate buffer, pH 5.0. The plate was read with a microtiter plate reader at a wavelength of 450 nm and when the maximum-binding control wells reached an absorbance of about 1.0, the final A450 were recorded for analysis. The data were analyzed using a macro written for use with the EXCEL™ spreadsheet program. The mean, standard deviation, and % CV were determined for duplicate concentrations. The mean A450 values were normalized to the mean of four maximum-binding controls (no competitor added) (B-MAX). The normalized values were subjected to a four parameter curve fit algorithm [Rodbard et al., Int.

[3] = inhibition of binding of biotinylated human vitronectin (1 nM) to purified receptor, Table I, read-out: AvB3 IC50

| Structure (SMILES) | IC50 [1] [nM] | IC50 [2, 3] [nM] | IC50 ([2]; positive control included on each plate, read-out: αv β3 antagonist IC50 of positive control) [nM] |
| --- | --- | --- | --- |
| N=C(N)Nc1cccc(C(O)CCc2cccc(/C=C/C(=O)O)c2)c1 (racemic) [Example 96, 3-[3-[3-[3-[(aminoiminomethyl)amino]phenyl]-3-hydroxypropyl]phenyl]propenoic acid, trifluoroacetate salt] | 15600 | 207 |  |
| N=C(N)Nc1cccc(C(=O)Nc2ccc(C(=CC(=O)O)c3ccccc3)cc2)c1 (single isomer, unassigned) [Example 58, 3-[4-[[[3-[(aminoiminomethyl)amino]phenyl]-carbonyl]amino]phenyl]-3-phenylpropenoic acid, trifluoroacetate salt] | 2270 | 79.8 |  |
| COC(=O)/C=C/c1cccc(CNC(=O)c2cccc(NC(=N)N)c2)c1 [Example 1, methyl 3-[3-[[[[3-[(aminoiminomethyl)-amino]phenyl]carbonyl]amino]methyl]phenyl]-2-propenoate, trifluoroacetate salt] | > 100000 | 15800 |  |
| N=C(N)Nc1cccc(C(=O)NCc2cccc(/C=C/C(=O)O)c2)c1 [Example 2, 3-[3-[[[[3-[(aminoiminomethyl)amino]phenyl]carbonyl]amino]methyl]phenyl]-2-propenoic acid, trifluoroacetate salt] | 657 | 13 |  |
| CCOC(=O)/C=C/c1ccc(NC(=O)c2cccc(NC(=N)N)c2)cc1 [Example 3, ethyl 3-[4-[[[3-[(aminoiminomethyl)amino]phenyl]carbonyl]amino]phenyl]-2-propenoate, monohydrate trifluoroacetate salt] | 32200 | 29000 |  |
| N=C(N)Nc1cccc(C(=O)Nc2ccc(/C=C/C(=O)O)cc2)c1 [Example 4, 3-[4-[[[3-[(aminoiminomethyl)amino]phenyl]carbonyl]amino]phenyl]-2-propenoic acid, trifluoroacetate salt] | 7.05 | 10.6 |  |
| Cc1cc(/C=C/C(=O)O)ccc1NC(=O)c1cccc(NC(=N)N)c1 [Example 5, 3-[4-[[[3-[(arainoiminomethyl)amino]phenyl]carbonyl]amino]-3-methylphenyl]propenoic acid, trifluoroacetate salt] | 9.58 | 4.01 |  |
| CCc1cc(/C=C/C(=O)O)ccc1NC(=O)c1cccc(NC(=N)N)c1 [Example 7, 3-[4-[[[3-[(aminoiminomethyl)amino]phenyl]carbonyl]amino]-3-ethylphenyl]propenoic acid, trifluoroacetate salt] | 15.1 | 2.95 |  |
| N=C(N)Nc1cccc(C(=O)Nc2ccc(/C=C/C(=O)O)cc2Cl)c1 [Example 9, 3-[4-[[[3-[(aminoiminomethyl)amino]phenyl]-carbonyl]amino]3-chlorophenyl]propenoic acid, trifluoroacetate salt] | 11 | 3.46 |  |
| N=C(N)Nc1cccc(C(=O)Nc2ccc(/C=C/C(=O)O)cc2F)c1 [Example 11, 3-[4-[[[3-[(aminoiminomethyl)aminolphenyl]carbonyl]-amino]-3-fluorophenyl]-2E-propenoic acid, trifluoroacetate salt] | 14.1 | 7.07 |  |
| N=C(N)Nc1cccc(C(=O)Nc2ccc(/C=C/C(=O)O)cc2C(F)(F)F)c1 [Example 12, 3-[4-[[[3-[(aminoiminomethyl)amino]phenyl]carbonyl]amino]-3-(trifluoromethyl)phenyl]-2E-propenoic acid, trifluoroacetate salt] | 670 | 155 |  |
| Cc1cc(/C=C/C(=O)O)cc(C)c1NC(=O)c1cccc(NC(=N)N)c1 [Example 13, 3-[4-[[[3-[(aminoiminomethyl)amino]phenyl]carbonyl]-amino]-3,5-dimethylphenyl]-2E-propenoic acid, trifluoroacetate salt] | 2160 | 23.1 |  |
| Cc1cc(/C=C/C(=O)O)cc(Cl)c1NC(=O)c1cccc(NC(=N)N)c1 [Example 15, 3-[4-[[[3-[(aminoiminomethyl)amino]phenyl]carbonyl]-amino]-3-chloro-5-methylphenyl]-2E-propenoic acid, trifluoroacetate salt] | 2620 | 28.8 |  |
| N=C(N)Nc1cccc(C(=O)Nc2ccc(/C=C/C(=O)O)c3ccccc23)c1 [Example 16, 3-[4-[[[3-[(aminoiminomethyl)amino]phenyl]carbonyl]-amino]naphthalen-1-yl]-2E-propenoic acid, trifluoroacetate salt] | 25.4 | 50.9 |  |
| Cc1cc(/C=C/C(=O)O)ccc1NC(=O)c1cccc(NC2=NCCCN2)c1 [Example 18, 3-[3-methyl-4-[[[3-[(1,4,5,6-tetrahydropyrimidin-2-yl)amino]phenyl]carbonyl]amino]phenyl]propenoic acid, trifluoroacetate salt] | 181 | 0.46 |  |
| N=C(N)Nc1cccc(C(=O)Nc2ccc(/C=C/C(=O)O)c(Cl)c2)c1 [Example 28, 3-[4-[[[3-[(aminoiminomethyl)amino]phenyl]carbonyl]-amino]-2-chlorophenyl]propenoic acid, trifluoroacetate salt] |  | 23.3 |  |
| N=C(N)NCCCCC(=O)NCC(=O)NC(CC(=O)O)c1cccnc1 (stereo not drawn) [β-[[2-[[5-[(aminoiminomethyl)amino]-1-oxopentyl]amino]-1-oxoethyl]amino]-3-pyridinepropanoic acid] |  |  | 3 to 10 |
